Measurements published in patent US20230220021A1, “CYCLIC PEPTIDE INHIBITORS OF PSD-95 AND USES THEREOF” (University of Copenhagen, priority 2020, published 2023).
Where a SMILES comes first, the peptide text is derived from it. [ ]: non-standard residue; d: D form. The star is where a group is joined. 5TAMRA = CN(C)c1ccc2c(c1)Oc1cc(N(C)C)ccc1C21OC(=O)c2cc(C(=O)*)ccc21

Columns and labels:
PSD-95-PDZ2 [1] = target: T1, PSD-95-PDZ2 (Homo sapiens, UniProt P78352, V178C); test: SPOT peptide array screening with TAMRA labelled PSD-95-PDZ2; format: binding; details: SPOT array, TAMRA labelled PSD-95-PDZ2-V178C, normalized to WT
T1 construct: screened with the TAMRA labelled PSD-95-PDZ2-V178C domain; 7xHis (N); made in house
Outline: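 First, arrays were blocked 1 h and scanned to record background. Next, 50 nM labelled PDZ2-V178C in PBS pH 7.2 with 0.5% BSA bound for 1 h protected from light. Finally, after washes, 532 nm fluorescence was measured and background-corrected.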

plasmin = plasmin (Homo sapiens, UniProt P00747); test: In vitro plasmin stability; format: in vitro ADME; details: plasmin (10 μg/mL) in phosphate buffered saline; 100 μM ligand, PBS with plasmin (10 μg/mL), 37° C., 0 to 360 minutes; mean n=3
plasmin, sequence (P00747 581-810 limits assumed, species assumed): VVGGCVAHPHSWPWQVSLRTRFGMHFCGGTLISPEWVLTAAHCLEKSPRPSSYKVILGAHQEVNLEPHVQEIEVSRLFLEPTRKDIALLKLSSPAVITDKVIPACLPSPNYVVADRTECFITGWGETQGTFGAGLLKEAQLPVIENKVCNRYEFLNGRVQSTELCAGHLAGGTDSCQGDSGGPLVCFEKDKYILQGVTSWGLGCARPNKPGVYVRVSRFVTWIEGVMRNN
plasmin, sequence (P00747 97-580 partner limits assumed, species assumed): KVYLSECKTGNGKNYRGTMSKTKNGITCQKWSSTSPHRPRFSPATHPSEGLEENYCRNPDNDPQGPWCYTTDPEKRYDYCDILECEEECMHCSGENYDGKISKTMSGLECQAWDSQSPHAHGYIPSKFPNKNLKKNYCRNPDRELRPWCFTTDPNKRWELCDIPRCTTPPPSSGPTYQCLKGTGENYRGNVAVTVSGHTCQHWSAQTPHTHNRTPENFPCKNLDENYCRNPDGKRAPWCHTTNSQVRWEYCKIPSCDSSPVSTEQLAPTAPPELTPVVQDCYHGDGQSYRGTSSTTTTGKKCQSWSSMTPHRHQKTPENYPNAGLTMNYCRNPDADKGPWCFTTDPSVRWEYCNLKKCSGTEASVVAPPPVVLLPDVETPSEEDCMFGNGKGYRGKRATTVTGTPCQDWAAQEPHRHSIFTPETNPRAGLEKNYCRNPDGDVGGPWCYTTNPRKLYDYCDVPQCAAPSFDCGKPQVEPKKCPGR
Method: The in vitro plasmin stability of peptides with SEQ ID NOs: 12, 68, 99 and 163 were determined by incubating 100 μM of ligand in phosphate buffered saline (PBS) supplemented with plasmin (10 μg/mL) at 37° C. for 0 to 360 minutes. At selected time points during the incubation, the ligands were extracted from 80 μL of assay matrix by treatment with 80 μL of 50% acetonitrile (ACN). The samples were filtered and analysed by UPLC to determine the amount of ligand remaining. LC-MS analysis was performed to confirm ligand integrity and identify cleavage sites.

PSD-95-PDZ2 [2] = target: T2, PSD-95-PDZ2 (Homo sapiens, UniProt P78352); test: Fluorescence polarization (FP) competition assay against cyclic nNOS TAMRA probe; format: binding
T2 construct: 7xHis (N); made in house; host or cells: Escherichia coli B21 pLys (for the mutants, 'as previously described')

PSD-95-PDZ2 [3] = target: T2, PSD-95-PDZ2; test: Isothermal titration calorimetry (ITC); format: binding; details: ITC, 25° C.
Method: Isothermal titration calorimetry (ITC). The ITC assays were performed in NaPi 50 nM, 50 nM NaCl, pH 7.2 buffer filtered with a Corning® bottle-top vacuum filter system of a pore size of 0.22 μM, that was used to dissolve the peptides. Proteins were dialyzed against this buffer using Amicon® Ultra-15 centrifugal filter units, with a MWCO 3000 Da.
This assay was performed on an ITC200. The instrument differential power (DP) was set to 10 and the syringe rotating speed to 600 RPM. The assay setup consisted of introducing the protein inside the cell and the peptide (titrant) on the syringe. Calorimetry was performed at 25° C. Each analysis was performed in triplicates. Furthermore, several runs of peptide into buffer were performed in order to remove injection residual heat. Runs were analyzed with Origin 7.0 software (OriginLab).

[4] = tested on: HeLa cells stably expressing HaloGFP
Excerpt: To assess the cellular permeability and delivery to the cytosol of the compounds as defined herein, the cellular chloroalkane penetration assay (CAPA) may be used (Peraro et al. 2018). This assay takes advantage of a modified haloalkane dehalogenase designed to covalently bind chloroalkane (CA) molecules. A HeLa cell line expressing a fusion protein comprising a HaloTag, a green fluorescent protein (GFP) and a mitochondria-targeting peptide is used to report cytosolic delivery. […] Cells expressing the HaloTag enzyme are incubated with CA-tagged peptides. When these CA-peptides penetrate the cell membrane and reach the cytosol, they will bind to and react with the HaloTag (pulse step). Following a washing step, the cells are incubated with a CA-tagged dye that quantitatively penetrates the cell membrane and reacts with remaining unreacted HaloTag sites (chase step). Flow cytometry is used to measure the fluorescence intensity of the cells and the measured fluorescence is inversely proportional to the amount of CA-peptides that reach the penetrated the cells and can thus be used to assess cytosolic delivery. The obtained data is commonly expressed as CP50 values, the concentration at which 50% cell penetration is observed. […]

PSD-95-PDZ2 V229A = target: T3, PSD-95-PDZ2 V229A (Homo sapiens, UniProt P78352, V229A); test: FP saturation assay against PSD-95-PDZ2 Ala mutant V229A; format: binding; details: V229A mutation; TAMRA probes
T3 construct: measured against recombinantly expressed PSD-95-PDZ2 Ala mutants in FP saturation experiments; 7xHis (N); made in house; host or cells: Escherichia coli B21 pLys
Excerpt: (§1) Protein expression. The pRSET plasmids encoding the (7× His)-PSD-95-PDZ2 wild type and (7× His)-PSD-95-PDZ2-V178C sequences were obtained as described previously.^38 The DNA constructs encoding the PSD-95-PDZ2 mutants (K165A, K168A, F172A, F1721, S173A, N180A, T192A, K193A, H225A, E226A, V229A K233A) were produced using Phusion® site-directed mutagenesis kit on the pRSET plasmid of the wild type PSD-95-PDZ2 and with the primers listed in Table 1. The PSD-95-PDZ2 mutants were transformed and expressed as previously described,^38 in Escherichia coli B21 pLys cells at 37° C. and 0.5 mM isopropyl-D-thiogalactopyranoside (IPTG). […] Protein concentration was measured by NanoDrop 1000 and mass determination of proteins was analyzed using an Agilent 6410 triple quadrupole LC-MS with a Poroshell column, 300SB-C18 2.1×75 mm in a linear gradient of 5% to 60% B, using a binary solvent system [A: H2O/MeCN/TFA, 94.9/5/0.1 and B: H2O/MeCN/TFA, 5/94.9/0.1] with a flow of 0.75 mL min^−1. […] The proteins were analyzed using the following gradient: from 5% to 60% B for 4 min. and from 60 to 100% B from 4 to 4.5 min.
(§2) Fluorescence polarization (FP). […] Fluorescence polarization was measured using a Safire 2 plate reader. […] Then, the polarization was fitted into a one-site binding model using Prism software 8.0 (GraphPad), from which the Kd can be measured. […]

PSD-95-PDZ2 H225A = target: T4, PSD-95-PDZ2 H225A (Homo sapiens, UniProt P78352, H225A); test: FP saturation assay against PSD-95-PDZ2 Ala mutant H225A; format: binding; details: H225A mutation; TAMRA probes
T4 construct: measured against recombinantly expressed PSD-95-PDZ2 Ala mutants in FP saturation experiments; 7xHis (N); made in house; host or cells: Escherichia coli B21 pLys
Excerpt: as §1, §2

PSD-95-PDZ2 K165A = target: T5, PSD-95-PDZ2 K165A (Homo sapiens, UniProt P78352, K165A); test: FP saturation assay against PSD-95-PDZ2 Ala mutant K165A; format: binding; details: K165 mutation; TAMRA probes
T5 construct: measured against recombinantly expressed PSD-95-PDZ2 Ala mutants in FP saturation experiments; 7xHis (N); made in house; host or cells: Escherichia coli B21 pLys
Excerpt: as §1, §2

CC[C@H](C)[C@@H]1NC(=O)[C@H]([C@@H](C)O)NC(=O)[C@H](C)NC(=O)[C@@H]2CCCN2C(=O)[C@H]([C@@H](C)O)NC(=O)CNC(=O)[C@H](CC(=O)O)NC(=O)CNC(=O)[C@H]([C@@H](C)O)NC(=O)[C@H](Cc2ccccc2)NC(=O)[C@H]([C@@H](C)O)NC(=O)[C@H]([C@@H](C)O)NC(=O)[C@H](CCC(=O)O)NC(=O)[C@H](CC(C)C)NC(=O)[C@H](Cc2c[nH]cn2)NC(=O)[C@H]([C@@H](C)O)NC(=O)[C@H](CCC(N)=O)NC(=O)CNC(=O)[C@H]2CCCN2C(=O)[C@H](CCC(N)=O)NC(=O)[C@H]([C@@H](C)O)NC(=O)[C@H](C(C)C)NC(=O)[C@H](CCCNC(=N)N)NC1=O [compound 68] (cyclo(THLETTFTGDGTPATIRVTQ[dP]GQ))
Normalized SPOT fluorescence (Mut/WT) (PSD-95-PDZ2 [1]): 0.39
half-life at 100 μM (plasmin): 6 h
Ki (PSD-95-PDZ2 [2]; FP competition, cyclic nNOS TAMRA probe, mean of triplicates, N.B. = not binding, read-out: Ki): 1.43 µM
Relative Ki (Ki mut/Ki WT) (PSD-95-PDZ2 [2]; FP inhibition constant normalized to WT value): 0.95

CC[C@H](C)[C@@H]1NC(=O)[C@H]([C@@H](C)O)NC(=O)[C@H](CCCCN)NC(=O)[C@@H]2CCCN2C(=O)[C@H]([C@@H](C)O)NC(=O)CNC(=O)[C@H](CC(=O)O)NC(=O)CNC(=O)[C@H]([C@@H](C)O)NC(=O)[C@H](Cc2ccccc2)NC(=O)[C@H]([C@@H](C)O)NC(=O)[C@H]([C@@H](C)O)NC(=O)[C@H](CCC(=O)O)NC(=O)[C@H](CC(C)C)NC(=O)[C@H](Cc2c[nH]cn2)NC(=O)[C@H]([C@@H](C)O)NC(=O)[C@H](CCC(N)=O)NC(=O)CNC(=O)[C@H]2CCCN2C(=O)[C@H](CCC(N)=O)NC(=O)[C@H]([C@@H](C)O)NC(=O)[C@H](C(C)C)NC(=O)[C@H](CCCNC(=N)N)NC1=O [compound 12]
ΔH (PSD-95-PDZ2 [3]): -7.7418 ± 0.6837 kcal/mol
−ΔS*T (PSD-95-PDZ2 [3]): 0.3499 ± 0.3084 kcal/mol
half-life at 100 μM (plasmin): 1.18 h

cyclo-(THLETTFTGDGTP(K-CA)TIRVTQpGQ) [SEQ ID NO: 427]
CP50 [4]: 31.1 ± 2.1 µM

CC[C@H](C)[C@H](NC(=O)[C@H](CO)NC(=O)[C@H](CO)NC(=O)[C@H](CC(C)C)NC(=O)[C@H](CCCCN)NC(=O)c1ccc2c(c1)C(=O)OC21c2ccc(N(C)C)cc2Oc2cc(N(C)C)ccc21)C(=O)N[C@@H](CCC(=O)O)C(=O)N[C@@H](CO)C(=O)N[C@@H](CC(=O)O)C(=O)N[C@H](C(=O)O)C(C)C [C-terminal GluN2B TAM RA probe] (5TAMRA-KLSSIESDV-OH; N-terminus assumed)
fold loss in affinity (Kd mutant normalized to PSD-95-PDZ2 WT) (PSD-95-PDZ2 V229A): 2 fold
fold decrease in affinity (Kd mutant normalized to PSD-95-PDZ2 WT) (PSD-95-PDZ2 H225A): 5 fold
fold loss in affinity (Kd mutant normalized to PSD-95-PDZ2 WT) (PSD-95-PDZ2 K165A): 5 fold
